Measurements: paper PMC10476022 (RSC Advances, 2023)
Entries after “also recorded” stand apart in the source; their conditions may differ.

Assays:
[1] = Antioxidant potential by DPPH assay
Source text: Assessment of the toxicity is the prerequisite study for the synthetic derivatives. […] AChE enzyme provides the site for the aggregation of the Aβ1–42.

hBuChE = molecular target: T1, hBuChE (Homo sapiens, UniProt P06276); assay: biochemical; format: biochemical; details: for IC50: tris-HCl buffer pH 8.0, read-out: IC50 ± SE hBuChE
T1 construct: purchased Sigma Aldrich
Description: (§1) Himedia supplied Acetylthiocholine iodide (AthCI), Butyrylthiocholine iodide (BthCI), and 5,5′-dithiobis (2-nitrobenzoic acid) (DTNB-reagent). […] AChE (50 μL, 1.00 U mL^−1) or BuChE (50 μL, 0.6 U mL^−1) and 20 μL of the test or standard compounds were incubated in a 96 well plate for 30 minutes at room temperature. […] The IC50 values were determined by measuring the absorbance of the test and standard substances. Three independent runs of the assays were conducted in triplicate.

hAChE = molecular target: T2, hAChE (Homo sapiens, UniProt P22303); assay: biochemical; details: for Selectivity ratio: (IC50 of BuChE)/(IC50 of AChE); for IC50: tris-HCl buffer pH 8.0, read-out: IC50 ± SE hAChE
T2 construct: purchased Sigma Aldrich
Description: as §1

Aβ1–42 = tested on: T3, Aβ1–42; assay: AChE-induced Aβ1–42 aggregation assay (ThT); format: biochemical
T3 construct: Aβ1–42, purchased from Sigma, was dissolved in 10 mM phosphate buffer; purchased Sigma
Description: The Aβ oligomers and aggregates formed with or without AChE and metal ions induce multifaceted toxicity leading to neuronal cell death. […] Aβ1–42, purchased from Sigma, was dissolved in 10 mM phosphate buffer (PBS) of pH 7.5 to get a stock concentration of […]. The test compounds were dissolved in the DMSO and further diluted with PBS. Different proportions of the Aβ1-42: Inhibitor (1 : 0.05, 1 : 1, 1 : 2) were used in the ThT assay. […] The mixtures were incubated at room temperature for 48 hours in the dark.

SH-SY5Y cell line = assay: Cell line-based toxicity study (MTT assay); details: 72 h
Description: In recent decades, in vitro cell line research has become commonplace since they are useful for primary optimization and mechanistic investigations before toxicological studies on animals.[29]
Briefly, the cell lines (density 1 × 10^4 cells per wells) were plated in 96 well plates and incubated for 24 h at 37 °C in a humidified atmosphere with 5% CO2. […] The absorbance was measured at 570 nm, and the percent cell viability was calculated. Each treatment was executed in triplicate and data were presented as a percentage of the control.

T2 sequence (P22303 32-614): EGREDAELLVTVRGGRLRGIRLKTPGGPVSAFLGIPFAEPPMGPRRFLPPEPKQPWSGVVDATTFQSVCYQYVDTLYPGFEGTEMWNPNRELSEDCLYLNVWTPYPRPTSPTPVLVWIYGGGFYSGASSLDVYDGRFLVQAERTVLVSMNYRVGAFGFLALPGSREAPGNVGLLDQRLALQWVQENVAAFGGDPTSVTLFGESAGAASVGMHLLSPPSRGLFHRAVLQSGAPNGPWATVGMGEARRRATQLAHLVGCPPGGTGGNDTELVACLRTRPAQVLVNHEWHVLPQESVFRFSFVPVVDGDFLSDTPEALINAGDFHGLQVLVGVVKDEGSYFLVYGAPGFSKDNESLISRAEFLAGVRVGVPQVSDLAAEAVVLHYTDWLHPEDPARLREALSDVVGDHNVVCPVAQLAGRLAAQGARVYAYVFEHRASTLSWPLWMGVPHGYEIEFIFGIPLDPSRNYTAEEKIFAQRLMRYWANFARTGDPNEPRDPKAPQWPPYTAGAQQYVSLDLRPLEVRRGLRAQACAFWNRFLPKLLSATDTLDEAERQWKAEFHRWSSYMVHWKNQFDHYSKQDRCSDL

## O=C1O[C@H]([C@@H](O)CO)C(O)=C1O [Ascorbic acid, reference compound]
[1]; 50 μM
  % free radicle scavenging, mean ± SE: 42.66 ± 1.491%
[1]; 100 μM
  % free radicle scavenging, mean ± SE: 76.76 ± 0.708%

## COc1ccc2c(c1)c(CC(=O)NN=Cc1cccc(O)c1)c(C)n2C(=O)c1ccc(Cl)cc1 [IND-24, (1-(4-Chlorobenzoyl)-5-methoxy-2-methyl-1H-indol-3-yl)-N′-(3-hydroxybenzylidene) aceto-hydrazide]
hBuChE
  IC50: 98.18 ± 0.12 µM
[1]; 50 μM
  % free radicle scavenging, mean ± SE: 17.68 ± 0.478%
[1]; 100 μM
  % free radicle scavenging, mean ± SE: 34.34 ± 1.333%
hAChE
  Selectivity ratio: 7.83
  IC50: 12.5 ± 0.143 µM

## COc1cccc(C=NNC(=O)Cc2c(C)n(C(=O)c3ccc(Cl)cc3)c3ccc(OC)cc23)c1 [IND-25, (1-(4-Chlorobenzoyl)-5-methoxy-2-methyl-1H-indol-3-yl)-N′-(3-methoxybenzylidene) aceto-hydrazide]
hBuChE
  BuChE inhibition (in words): inactive on the BuChE enzyme
  IC50: > 1000 µM
[1]; 50 μM
  % free radicle scavenging, mean ± SE: 11.51 ± 0.748%
[1]; 100 μM
  % free radicle scavenging, mean ± SE: 27.99 ± 1.127%
hAChE
  IC50: 264.23 ± 0.102 µM

## COc1ccc2c(c1)c(CC(=O)NN=Cc1ccc(O)cc1)c(C)n2C(=O)c1ccc(Cl)cc1 [IND-30, (1-(4-Chlorobenzoyl)-5-methoxy-2-methyl-1H-indol-3-yl)-N′-(4-hydroxybenzylidene)aceto-hydrazide]
hBuChE
  IC50: 95.34 ± 0.144 µM
[1]; 50 μM
  % free radicle scavenging, mean ± SE: 15.19 ± 0.881%
[1]; 100 μM
  % free radicle scavenging, mean ± SE: 30.65 ± 1.010%
hAChE
  Selectivity ratio: 22.92
  IC50: 4.16 ± 0.063 µM
Aβ1–42; 0.5, 10, 20 μM, 48 h incubation
  effect on AChE-induced Aβ1–42 aggregation (in words): effective only at the higher dose (20 μM); also recorded: decreased Aβ aggregation in a concentration-dependent manner; also recorded: active at 20 μM
Aβ1–42; tested at 0.5, 10 and 20 μM
  AChE-induced Aβ aggregation inhibited: ~50%
SH-SY5Y cell line
  concentration with no significant toxicity: ≤ 30000 µM

## COc1ccc2c(c1)c(CC(=O)NN=Cc1ccccc1OC)c(C)n2C(=O)c1ccc(Cl)cc1 [IND-31, (1-(4-Chlorobenzoyl)-5-methoxy-2-methyl-1H-indol-3-yl)-N′-(2-methoxybenzylidene)aceto-hydrazide]
hBuChE
  BuChE inhibition (in words): inactive on hBuChE
  IC50: > 1000 µM
[1]; 50 μM
  % free radicle scavenging, mean ± SE: 9.75 ± 0.625%
[1]; 100 μM
  % free radicle scavenging, mean ± SE: 26.43 ± 0.887%
hAChE
  IC50: 421.22 ± 0.086 µM

## COc1ccc2c(c1)c(CC(=O)NN=Cc1c(O)cccc1O)c(C)n2C(=O)c1ccc(Cl)cc1 [IND-40, (1-(4-Chlorobenzoyl)-5-methoxy-2-methyl-1H-indol-3-yl)-N′-(2,6-dihydroxybenzylidene)aceto-hydrazide]
hBuChE
  IC50: 689.12 ± 0.128 µM
[1]; 50 μM
  % free radicle scavenging, mean ± SE: 24.10 ± 0.889%
[1]; 100 μM
  % free radicle scavenging, mean ± SE: 50.39 ± 0.930%
hAChE
  Selectivity ratio: 9.77
  IC50: 70.54 ± 0.133 µM

## COc1ccc2c(c1)c(CC(=O)NN=Cc1cccc(O)c1O)c(C)n2C(=O)c1ccc(Cl)cc1 [IND-42, (1-(4-Chlorobenzoyl)-5-methoxy-2-methyl-1H-indol-3-yl)-N′-(2,3-dihydroxybenzylidene)aceto-hydrazide]
hBuChE
  IC50: 668.22 ± 0.133 µM
[1]; 50 μM
  % free radicle scavenging, mean ± SE: 18.21 ± 0.598%
[1]; 100 μM
  % free radicle scavenging, mean ± SE: 38.87 ± 1.012%
hAChE
  Selectivity ratio: 5.44
  IC50: 122.75 ± 0.086 µM
